Here are results for 13 compounds from patent US20040033963A1, “Urea composition” (priority 2002, published 2004).

A short description of the test: Antioxidant screening: prevention or retardation of air oxidation of anthralin, hydroquinone or banana peel. The conditions noted are these: screening methods: air oxidation of anthralin. As to the method: The antioxidant property of some hydroxyacids, polyhydroxy acids and lactones are determined as follows. Oxidation by definition is removal of electrons or addition of oxygen. An antioxidant can be defined as a substance capable of preventing or inhibiting oxidation, or capable of disposing, scavenging, or suppressing formation or actions of peroxide, superoxide or free radicals. We have developed three simple assays to determine if a substance is an antioxidant or not. The antioxidant property is determined by using one of the following screening methods: prevention or retardation of air oxidation of (a) anthralin, (b) hydroquinone, or (c) banana peel. A freshly prepared anthralin solution or cream is bright yellow, and an air oxidized one is brownish or black. A hydroquinone solution or cream is colorless or white color, and an air-oxidized one is brownish or black. A freshly peeled banana peel is light yellow in color, and an oxidized one ranges in color from tan, dark tan, brown to brownish black.
Known antioxidants such as vitamin C and N-acetylcysteine may be used as the positive control in these screening methods.

Take `O=C1O[C@H]([C@@H](O)CO)C(O)=C1O` [ascorbic acid]: the antioxidant property entry is “antioxidants”.

For the compound `O=C(O)CC(O)(CC(=O)O)C(=O)O` [citric acid], the antioxidant property entry is recorded as “antioxidants”.

On to `O=C1O[C@@H]([C@H](O)CO)[C@H](O)[C@H]1O` [galactonolactone], for which the antioxidant property result is given as “antioxidants”.

Regarding `O=C(O)[C@@H](O)[C@H]1OC(=O)[C@H](O)[C@H]1O` [glucarolactone], the antioxidant property entry was “antioxidants”.

As to `O=C1O[C@@H]([C@H](O)[C@H](O)CO)[C@@H](O)C1O` (stereo partly shown) [glucoheptonolactone], the antioxidant property result is recorded as “antioxidants”.

For `O=C(O)[C@H](O)[C@@H](O)[C@H](O)[C@H](O)CO` [gluconic acid], the antioxidant property entry is “antioxidants”.

Regarding `O=C1O[C@H](CO)[C@@H](O)[C@H](O)[C@H]1O` [gluconolactone], the antioxidant property entry is listed as “antioxidants”.

Turning to `O=C[C@H](O)[C@H]1OC(=O)[C@@H](O)[C@H]1O` [glucuronolactone], the antioxidant property entry is on record as “antioxidants”.

For `O=C1O[C@H]([C@H](O)CO)C(O)=C1O` [isoascorbic acid], the antioxidant property entry is recorded as “antioxidants”.

Regarding `O=C(O)CC(C(=O)O)C(O)C(=O)O` (stereo not shown) [isocitric acid], the antioxidant property entry is “antioxidants”.

Turning to `O=C(O)CC(O)C(=O)O` (stereo not shown) [malic acid], the antioxidant property entry is “antioxidants”.

Take `O=C1O[C@H](CO)[C@@H](O)[C@H]1O` [ribonolactone]: the antioxidant property result was “antioxidants”.

As to `O=C(O)C(O)C(=O)O` [tartronic acid], the antioxidant property result is listed as “antioxidants”.
